Assay: excess molar enthalpy (molar enthalpy of mixing); xn = mol fraction of the nth substance listed
Settings: 100 kPa

Cl/C=C\Cl + CCCCCCCCCCCC
293.15 K
Settings	excess molar enthalpy [kcal/mol]
x1 = 0.2693	0.192
x1 = 0.4431	0.283
x1 = 0.6609	0.281
x1 = 0.7922	0.232
x1 = 0.851	0.191
x1 = 0.9026	0.139
x1 = 0.9588	0.0679

Cl/C=C\Cl + CCCCCCCCCC
293.15 K
Settings	excess molar enthalpy [kcal/mol]
x1 = 0.2397	0.171
x1 = 0.4025	0.253
x1 = 0.6996	0.239
x1 = 0.7635	0.211
x1 = 0.9492	0.0662

Cl/C=C\Cl + CCCCCCC
313.15 K
Settings	excess molar enthalpy [kcal/mol]
x1 = 0.0572	0.0485
x1 = 0.2014	0.148
x1 = 0.3465	0.218
x1 = 0.4595	0.245
x1 = 0.5694	0.24
x1 = 0.6673	0.221
x1 = 0.7579	0.183
x1 = 0.8409	0.137
x1 = 0.9317	0.0652

Cl/C=C/Cl + CCCCCCC
293.15 K
Settings	excess molar enthalpy [kcal/mol]
x1 = 0.1911	0.081
x1 = 0.2074	0.0851
x1 = 0.2453	0.102
x1 = 0.2905	0.111
x1 = 0.3272	0.128
x1 = 0.352	0.129
x1 = 0.3757	0.137
x1 = 0.4118	0.151
x1 = 0.4157	0.15
x1 = 0.452	0.158
x1 = 0.4756	0.158
x1 = 0.4978	0.161
x1 = 0.5334	0.162
x1 = 0.5472	0.163
x1 = 0.5627	0.165
x1 = 0.5821	0.162
x1 = 0.6074	0.164
x1 = 0.6429	0.157
x1 = 0.6534	0.156
x1 = 0.7038	0.145
x1 = 0.7761	0.125
x1 = 0.8005	0.117
x1 = 0.907	0.0655
x1 = 0.9624	0.0301

Cl/C=C\Cl + CCCCCCCCCCCCCCCC
293.15 K
Settings	excess molar enthalpy [kcal/mol]
x1 = 0.5093	0.332
x1 = 0.6348	0.36
x1 = 0.714	0.353
x1 = 0.7791	0.326
x1 = 0.8308	0.282
x1 = 0.8823	0.228
x1 = 0.9221	0.168
x1 = 0.9676	0.0798

Cl/C=C/Cl + CCCCCCCCCC
293.15 K
Settings	excess molar enthalpy [kcal/mol]
x1 = 0.0575	0.022
x1 = 0.1583	0.0636
x1 = 0.2175	0.0865
x1 = 0.2316	0.0944
x1 = 0.2585	0.106
x1 = 0.3396	0.132
x1 = 0.3972	0.152
x1 = 0.4202	0.16
x1 = 0.4829	0.168
x1 = 0.5312	0.179
x1 = 0.5522	0.178
x1 = 0.5739	0.175
x1 = 0.6031	0.175
x1 = 0.6375	0.178
x1 = 0.6555	0.176
x1 = 0.6923	0.165
x1 = 0.6977	0.166
x1 = 0.7284	0.163
x1 = 0.7393	0.161
x1 = 0.7653	0.148
x1 = 0.7812	0.144
x1 = 0.8229	0.127
x1 = 0.8478	0.116
x1 = 0.9335	0.0602
x1 = 0.9785	0.0213

Cl/C=C/Cl + CCCCCCCCCCCCCC
293.15 K
Settings	excess molar enthalpy [kcal/mol]
x1 = 0.1129	0.05
x1 = 0.1792	0.0877
x1 = 0.3112	0.14
x1 = 0.3404	0.153
x1 = 0.3809	0.165
x1 = 0.4345	0.181
x1 = 0.4786	0.193
x1 = 0.5019	0.2
x1 = 0.535	0.201
x1 = 0.5634	0.205
x1 = 0.5851	0.204
x1 = 0.6008	0.207
x1 = 0.6211	0.209
x1 = 0.6352	0.208
x1 = 0.6675	0.204
x1 = 0.6789	0.202
x1 = 0.7008	0.199
x1 = 0.7106	0.198
x1 = 0.7314	0.191
x1 = 0.747	0.188
x1 = 0.757	0.185
x1 = 0.7762	0.178
x1 = 0.8541	0.141
x1 = 0.8757	0.127
x1 = 0.9005	0.108
x1 = 0.9374	0.0746

Cl/C=C\Cl + CCCCCCCCCCCCCC
293.15 K
Settings	excess molar enthalpy [kcal/mol]
x1 = 0.3157	0.229
x1 = 0.5126	0.327
x1 = 0.638	0.336
x1 = 0.7787	0.288
x1 = 0.8831	0.194
x1 = 0.923	0.139
x1 = 0.969	0.0657

Cl/C=C/Cl + CCCCCCCCCCCC
293.15 K
Settings	excess molar enthalpy [kcal/mol]
x1 = 0.086	0.0404
x1 = 0.1183	0.05
x1 = 0.1952	0.0913
x1 = 0.2658	0.115
x1 = 0.354	0.151
x1 = 0.4354	0.175
x1 = 0.5034	0.19
x1 = 0.5297	0.19
x1 = 0.5654	0.193
x1 = 0.5792	0.19
x1 = 0.637	0.19
x1 = 0.6708	0.187
x1 = 0.6712	0.19
x1 = 0.6857	0.185
x1 = 0.7145	0.182
x1 = 0.7213	0.179
x1 = 0.7547	0.173
x1 = 0.7676	0.166
x1 = 0.8276	0.14
x1 = 0.8799	0.107
x1 = 0.9289	0.0707
x1 = 0.9652	0.038

Cl/C=C/Cl + CC(C)CC(C)(C)C
293.15 K
Settings	excess molar enthalpy [kcal/mol]
x1 = 0.1328	0.0519
x1 = 0.1885	0.0681
x1 = 0.2561	0.0923
x1 = 0.3253	0.111
x1 = 0.415	0.124
x1 = 0.4532	0.13
x1 = 0.4584	0.134
x1 = 0.5167	0.141
x1 = 0.5332	0.138
x1 = 0.5571	0.138
x1 = 0.5777	0.139
x1 = 0.6055	0.139
x1 = 0.6468	0.135
x1 = 0.6554	0.133
x1 = 0.6658	0.131
x1 = 0.6824	0.13
x1 = 0.6926	0.127
x1 = 0.8092	0.0997
x1 = 0.8404	0.0875
x1 = 0.8988	0.0619
x1 = 0.9517	0.033

Cl/C=C/Cl + CCCCCCCCCCCCCCCC
293.15 K
Settings	excess molar enthalpy [kcal/mol]
x1 = 0.0735	0.0351
x1 = 0.1873	0.0944
x1 = 0.3532	0.167
x1 = 0.4326	0.192
x1 = 0.5287	0.212
x1 = 0.5819	0.223
x1 = 0.6155	0.223
x1 = 0.6514	0.22
x1 = 0.7106	0.214
x1 = 0.7294	0.208
x1 = 0.7428	0.205
x1 = 0.7698	0.197
x1 = 0.7846	0.194
x1 = 0.8008	0.184
x1 = 0.8578	0.152
x1 = 0.8776	0.137
x1 = 0.8951	0.125
x1 = 0.9485	0.071
x1 = 0.9795	0.0306

Cl/C=C\Cl + CC(C)CC(C)(C)C
293.15 K
Settings	excess molar enthalpy [kcal/mol]
x1 = 0.2119	0.142
x1 = 0.3627	0.209
x1 = 0.4911	0.228
x1 = 0.5812	0.226
x1 = 0.6622	0.21
x1 = 0.7314	0.188
x1 = 0.8061	0.155
x1 = 0.8696	0.116
x1 = 0.9434	0.0566

Reference: a compilation of properties of binary mixtures (doi:10.1021/je950317s)
